Assay type in all cases: functional, cell-based
In data set [1] the target is T1, ATP-dependent translocase ABCB1 (Homo sapiens, UniProt P08183). Put plainly: TP_TRANSPORTER: inhibition of Doxorubicin efflux (Doxorubicin: 50 uM, Chlorpyrifos: 250 uM) in MDR1-expressing B16/F10 cells. The note with it: mouse, b16-f10, 250 µM.
Data set [2] addresses T2, MDR1 (ABCB1, ATP-dependent translocase) (Homo sapiens, UniProt P08183). Put plainly: TP_TRANSPORTER: inhibition of Doxorubicin efflux (Doxorubicin: 50 uM, Hydramethylnon: 8 uM) in MDR1-expressing B16/F10 cells. Particulars: mouse, probe Doxorubicin.
The target of data set [3] is T2, MDR1 (ABCB1, ATP-dependent translocase). Description: TP_TRANSPORTER: inhibition of Doxorubicin efflux (Doxorubicin: 50 uM, Dicapthon: 250 uM) in MDR1-expressing B16/F10 cells. The note with it: mouse, probe Doxorubicin.
For data set [4] the target is unchanged. Put plainly: TP_TRANSPORTER: inhibition of Doxorubicin efflux (Doxorubicin: 50 uM, Endosulfan: 100 uM) in MDR1-expressing B16/F10 cells. The note with it: mouse, probe Doxorubicin.
Data set [5] concerns the target T1, ATP-dependent translocase ABCB1. Description: TP_TRANSPORTER: efflux in MDR1-expressing B16/F10 cells. Particulars: mouse.
Data set [6] deals with T2, MDR1 (ABCB1, ATP-dependent translocase). Put plainly: TP_TRANSPORTER: inhibition of Doxorubicin efflux (Doxorubicin: 50 uM, Heptachlor: 250 uM) in MDR1-expressing B16/F10 cells. Particulars: mouse, probe Doxorubicin.
For data set [7] the target is unchanged. Description: TP_TRANSPORTER: inhibition of Doxorubicin efflux (Doxorubicin: 50 uM, Heptachlor epoxide: 250 uM) in MDR1-expressing B16/F10 cells. The note with it: mouse, probe Doxorubicin.
Data set [8] has as its target T1, ATP-dependent translocase ABCB1. Put plainly: TP_TRANSPORTER: inhibition of Doxorubicin efflux (Doxorubicin: 50 uM, Chlorthiophos: 250 uM) in MDR1-expressing B16/F10 cells. Particulars: mouse, b16-f10, 250 µM.
Data set [9] has the same target. Put plainly: TP_TRANSPORTER: inhibition of Doxorubicin efflux (Doxorubicin: 50 uM, […]: 250 uM) in MDR1-expressing B16/F10 cells. The note with it: mouse, b16-f10, 250 µM.
For data set [10] the target is unchanged. Description: TP_TRANSPORTER: inhibition of Doxorubicin efflux (Doxorubicin: 50 uM, Clotrimazole: 100 uM) in MDR1-expressing B16/F10 cells. The note with it: mouse, b16-f10, 100 µM.
Data set [11] shares this target. Put plainly: TP_TRANSPORTER: inhibition of Doxorubicin efflux (Doxorubicin: 50 uM, Fluvalinate: 250 uM) in MDR1-expressing B16/F10 cells. The note with it: mouse, b16-f10, 250 µM.
Data set [12] shares this target. Put plainly: TP_TRANSPORTER: inhibition of Doxorubicin efflux (Doxorubicin: 50 uM, Phenamiphos: 250 uM) in MDR1-expressing B16/F10 cells. The note with it: mouse, b16-f10, 250 µM.
In data set [13] the target is T2, MDR1 (ABCB1, ATP-dependent translocase). Description: TP_TRANSPORTER: inhibition of Doxorubicin efflux (Doxorubicin: 50 uM, Tetrachlorohydroquinone: 250 uM) in MDR1-expressing B16/F10 cells. The note with it: mouse, probe Doxorubicin.
Data set [14] has the same target. Put plainly: TP_TRANSPORTER: inhibition of Doxorubicin efflux (Doxorubicin: 50 uM, Parathion: 250 uM) in MDR1-expressing B16/F10 cells. Particulars: mouse, probe Doxorubicin.
For data set [15] the target is unchanged. Put plainly: TP_TRANSPORTER: inhibition of Doxorubicin efflux (Doxorubicin: 50 uM, Chlordecone: 250 uM) in MDR1-expressing B16/F10 cells. The note with it: mouse, probe Doxorubicin.

SMILES strings stand for the structures.

T1 sequence (P08183 whole entry): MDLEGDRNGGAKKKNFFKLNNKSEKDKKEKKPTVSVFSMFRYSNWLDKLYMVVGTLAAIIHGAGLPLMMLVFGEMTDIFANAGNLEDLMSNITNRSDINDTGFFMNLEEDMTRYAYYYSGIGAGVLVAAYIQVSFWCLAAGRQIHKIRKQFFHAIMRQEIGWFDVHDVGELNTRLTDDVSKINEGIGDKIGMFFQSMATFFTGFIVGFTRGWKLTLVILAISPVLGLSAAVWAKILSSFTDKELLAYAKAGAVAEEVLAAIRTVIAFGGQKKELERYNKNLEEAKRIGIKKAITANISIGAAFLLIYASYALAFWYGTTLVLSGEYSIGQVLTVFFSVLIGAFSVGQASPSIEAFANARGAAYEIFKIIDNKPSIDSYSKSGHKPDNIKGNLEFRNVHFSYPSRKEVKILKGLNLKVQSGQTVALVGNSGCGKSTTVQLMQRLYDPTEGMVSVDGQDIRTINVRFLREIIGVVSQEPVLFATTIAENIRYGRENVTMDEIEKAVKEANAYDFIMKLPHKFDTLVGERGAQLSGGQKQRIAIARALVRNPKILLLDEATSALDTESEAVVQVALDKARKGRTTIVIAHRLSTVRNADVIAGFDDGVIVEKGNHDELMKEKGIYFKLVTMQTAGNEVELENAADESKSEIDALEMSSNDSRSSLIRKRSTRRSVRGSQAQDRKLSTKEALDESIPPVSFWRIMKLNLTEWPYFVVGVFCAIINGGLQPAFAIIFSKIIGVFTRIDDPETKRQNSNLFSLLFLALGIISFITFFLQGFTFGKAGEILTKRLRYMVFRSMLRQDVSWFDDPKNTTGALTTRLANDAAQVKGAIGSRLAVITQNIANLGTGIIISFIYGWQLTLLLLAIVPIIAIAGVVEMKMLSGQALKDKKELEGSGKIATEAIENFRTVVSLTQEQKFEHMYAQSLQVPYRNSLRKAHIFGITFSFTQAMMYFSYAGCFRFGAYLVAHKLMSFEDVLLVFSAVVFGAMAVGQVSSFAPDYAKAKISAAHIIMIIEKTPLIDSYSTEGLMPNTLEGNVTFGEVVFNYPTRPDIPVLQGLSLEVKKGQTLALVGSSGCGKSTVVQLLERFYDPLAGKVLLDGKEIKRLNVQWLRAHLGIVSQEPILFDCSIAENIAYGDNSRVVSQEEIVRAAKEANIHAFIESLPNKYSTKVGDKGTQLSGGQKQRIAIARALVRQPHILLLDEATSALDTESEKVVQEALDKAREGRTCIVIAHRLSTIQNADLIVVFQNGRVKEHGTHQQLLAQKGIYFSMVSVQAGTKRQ
T2 sequence (P08183 whole entry): as above

With `CCOP(=S)(OCC)Oc1nc(Cl)c(Cl)cc1Cl` [CHLORPYRIFOS], the Inhibition result in data set [1] is “inhibitor [51-80 % inhibition]”.
Take `CC1(C)CNC(=NN=C(/C=C/c2ccc(C(F)(F)F)cc2)/C=C/c2ccc(C(F)(F)F)cc2)NC1` [HYDRAMETHYLNON]: the inhibition (usually the drop in the measured response relative to a control, in per cent) at 8 µM in data set [2] is more than 80%.
`COP(=S)(OC)Oc1ccc([N+](=O)[O-])cc1Cl` [DICAPTHON] showed an inhibition at 250 µM in [3] of more than 80%.
In turn, `O=S1OCC2C(CO1)C1(Cl)C(Cl)=C(Cl)C2(Cl)C1(Cl)Cl` (stereo not given) [ENDOSULFAN] came in with an inhibition at 100 µM in data set [4] of more than 80%. In data set [5], the Activity entry was “substrate [+]”.
In turn, `ClC1=C(Cl)C2(Cl)C3C(Cl)C=CC3C1(Cl)C2(Cl)Cl` (stereo not given) [HEPTACHLOR] returned an inhibition at 250 µM in data set [6] of more than 80%.
`ClC1=C(Cl)C2(Cl)C3C4OC4C(Cl)C3C1(Cl)C2(Cl)Cl` (stereo not given) [HEPTACHLOR EPOXIDE]: the inhibition at 250 µM in [7] is more than 80%.
Regarding `CCOP(=S)(OCC)Oc1cc(Cl)c(SC)cc1Cl` [CHLORTHIOPHOS], in [8], the Inhibition result was “inhibitor [51-80 % inhibition]”.
Consider `COP(=S)(Oc1cc(Cl)c(Br)cc1Cl)c1ccccc1` (stereo not given) [LEPTOPHOS], for which the Inhibition result in data set [9] is “inhibitor [51-80 % inhibition]”.
On to `Clc1ccccc1C(c1ccccc1)(c1ccccc1)n1ccnc1` [CLOTRIMAZOLE], for which the Inhibition result in data set [10] was “inhibitor [51-80 % inhibition]”.
As for `CC(C)[C@H](Nc1ccc(C(F)(F)F)cc1Cl)C(=O)OC(C#N)c1cccc(Oc2ccccc2)c1` (stereo not given in full) [FLUVALINATE], the Inhibition entry in data set [11] was “inhibitor [31-50 % inhibition]”.
Consider `CCOP(=O)(NC(C)C)Oc1ccc(SC)c(C)c1` (stereo not given) [PHENAMIPHOS], for which, in [12], the Inhibition result was “inhibitor [51-80 % inhibition]”.
`Oc1c(Cl)c(Cl)c(O)c(Cl)c1Cl` [TETRACHLOROHYDROQUINONE] came in with an inhibition at 250 µM in data set [13] of more than 80%.
The compound `CCOP(=S)(OCC)Oc1ccc([N+](=O)[O-])cc1` [PARATHION] gave an inhibition at 250 µM in data set [14] of more than 80%.
As for `O=C1C2(Cl)C3(Cl)C4(Cl)C(Cl)(Cl)C5(Cl)C3(Cl)C1(Cl)C5(Cl)C24Cl` (stereo not given) [KEPONE], the inhibition at 250 µM in data set [15] is more than 80%.

The record behind these values is ChEMBL document CHEMBL2073776, “Interaction of structurally diverse pesticides with the human MDR1 gene product P-glycoprotein” (Toxicol Appl Pharmacol, 1996).
